# Measurements from US20200003760A1, “IN-VITRO METHODS FOR CLASSIFYING DRUGS ACCORDING TO THEIR POTENTIAL TO CAUSE LIVER CELL INJURY” (Board of Trustees of Michigan State University, priority 2018, published 2020).
# Entries after “also recorded” stand apart in the source; their conditions may differ. Where two headings read alike, the source gives them in different places.
# How the values were obtained:
# HepG2 cells = assay: Drug/cytokine-induced cytotoxicity (% LDH release) concentration-response in HepG2 cells; type: cell-based, human; set-up: key to Deltadiff: LDH release percentage points (drug/TNF Delta minus drug/VEH Delta); details: for R10 IFN: with IFN; for R10 TNF: with TNF; for R10 TNF/IFN / EC10 TNF/IFN: with TNF and IFN; for Deltadiff: Delta of drug/TNF curve minus Delta of drug/VEH curve (LDH percentage); for Emax / D10 (LDH rise of at least 10 points, yes/no): Homo sapiens; for TNF change: D10TNF − D10VEH; for cytotoxic interaction of drug with TNF / effect of IFN coexposure on the drug/TNF cytotoxic interaction / cytotoxicity of drug on its own (LDH release) / synergy with cytokines to kill HepG2 cells: HepG2, 24 h; for cytotoxic interaction of drug with TNF: TNF 10 ng/ml; for effect of IFN coexposure on the drug/TNF cytotoxic interaction: TNF and IFN 10 ng/ml each; for cytotoxicity of drug on its own (LDH release): absence of cytokines; for EC10 TNF / EC10 TNF/IFN / EC10 IFN: value corresponding to 10% of Delta; for EC10 TNF: with TNF 10 ng/ml; for EC10 TNF / EC10 TNF/IFN / EC10 / EC10 IFN: NA = no significant increase; for synergy with cytokines to kill HepG2 cells: TNF and/or IFN; for EC10: value corresponding to 10% of Delta (max-min); for EC10 IFN: with IFN 10 ng/ml
# Description: Cells were passed or used for experiments when they reached approximately 80% confluence. Cells were used at passage 6-16.
# HepG2 cells were plated at a density of 4×10^4 cells per well in black-walled, 96-well, tissue culture plates and were allowed to attach overnight before being treated with compounds. Drugs were reconstituted in vehicles consisting of sterile water or DMSO (concentration less than 0.5%). Cells were treated with various concentrations of the drug or its vehicle (control) alone or in combination with the cytokines TNF (10 ng/ml) and/or IFN (10 ng/ml) or their PBS vehicle (VEH). Cytotoxicity was evaluated as lactate dehydrogenase (LDH) activity released from the cells into culture medium using the Homogeneous Membrane Integrity Assay kit from Promega (Madison, Wis.).
# Concentration-response curves were generated for 24 drugs, 14 of which are associated with human IDILI and 10 of which are not. […] This was necessary because four-parameter logistic modeling used in the statistical analysis requires well defined, sigmoidal concentration-response curves. Cells were exposed to drug/cytokine combinations for 24 hours. For analysis of drug concentration-response data, concentrations of each drug were expressed as a fraction of its Cmax.
# Defining covariates: four-parameter logistic model. In the first phase, variables (potential covariates) for use in the classification analysis were defined from the analysis of drug concentration-response data. Initially, a one-way analysis of variance (ANOVA) was used as an omnibus test to determine if a particular treatment (e.g. drug alone or in combination with TNF and/or IFN) caused a significant change in LDH release relative to baseline (i.e., LDH release in the absence of drug, hereafter designated “min”). The criterion for significance for the ANOVA was set at α=0.01. A 1% level of significance was used to rule out more vigorously marginal relationships between concentration and response.
# where LDH(x) is the percentage of LDH released at a given concentration x; x=[drug]/Cmax; min=the % LDH release at 0 drug concentration (i.e., baseline); and max=the maximal LDH response (i.e., maximum % LDH release).
# where D10 is a categorical variable related to reaching a threshold LDH response above which a drug is classified as positively associated with IDILI. D10 is defined as 0 if Delta<10% LDH release and as 1 if Delta≥10% LDH release.
# The base covariate R10 represents the [drug]/Cmax value associated with an increase in 10 LDH percentage points above min for a particular treatment condition and was determined by the equation:
# R10 was considered to be 0 when the Delta<10% LDH (i.e. when D10=0).
# EC50 quotient, EC10 quotient and R10 quotient represent the ratio between the EC50, EC10 or R10 of the drug/cytokine concentration-response curve and the respective value for the drug/VEH concentration-response curve. In some instances, the value derived from this calculation is indeterminate (i.e. when the denominator=0). In order to incorporate the quotient values into the classification models described below, the categorical variable “Q” was used to eliminate the possibility of the quotient being indeterminate. Q is defined as 0 if Delta VEH and/or Delta cytokine is <10% LDH and 1 if both Delta VEH and Delta cytokine are ≥10% LDH. […] The same condition was applied for calculation of EC10 quotient and R10 quotient.
# Deltadiff represents the difference between the Delta of the drug/cytokine concentration-response curve and the Delta of the drug/VEH curve. In other words, Deltadiff=(Delta cytokine)−(Delta VEH). FIG. 1 graphically illustrates several of the covariates defined above. […] In addition to the covariates derived from the concentration-response curves, the maximal therapeutic plasma drug concentration (Cmax) in human patients was used in some models (Table 1).
# [1] = maximal plasma concentration after pharmacologic dosing in human patients; cited from earlier work
# [2] = cited from earlier work; for True classification: IDILI in human patients; for IDILI liability: criteria of Xu et al. (2008)
# [3] = 10 percent increase in LDH response above min, 0 when D10 = 0, drug alone (VEH)
# [4] = 10 percent increase in LDH response above min, 0 when D10 = 0
# [5] = HepG2, categorical, Delta threshold 10 LDH percentage points, drug alone (VEH), read-out: D10
# [6] = HepG2, maximal LDH response, drug alone (VEH), 24 h, read-out: max
# [7] = HepG2, categorical, Delta threshold 10 LDH percentage points, drug alone (VEH)
SMILES,R10 (HepG2 cells; [3]),R10 IFN (HepG2 cells; [4]),R10 TNF (HepG2 cells; [4]),R10 TNF/IFN (HepG2 cells; [4]),Deltadiff (HepG2 cells),Emax (HepG2 cells; [5]),Emax (HepG2 cells; [6]),TNF change (HepG2 cells; categorical),Cmax [1],True classification [2],IDILI liability [2],cytotoxic interaction of drug with TNF (HepG2 cells),cytotoxicity of drug on its own (LDH release) (HepG2 cells),EC10 TNF (HepG2 cells),EC10 TNF/IFN (HepG2 cells),EC10 (HepG2 cells; drug alone (VEH)),EC10 IFN (HepG2 cells),also measured
O=C1CC2(CCCC2)CC(=O)N1CCCCN1CCN(c2ncccn2)CC1 [Buspirone],0 [drug]/Cmax,0 [drug]/Cmax,0 [drug]/Cmax,0 [drug]/Cmax,0,< 10%,17.6%,0,0.005 µM,IDILI−,IDILI−,–,–,–,–,–,–,–
O=C(O)Cc1ccccc1Nc1c(Cl)cccc1Cl [Diclofenac],–,0 [drug]/Cmax,28.3 [drug]/Cmax,26.7 [drug]/Cmax,21.0,–,15.6%,1,–,–,–,synergized with TNF to cause cytotoxicity,caused no cytotoxicity on their own,23.9 [drug]/Cmax,23.2 [drug]/Cmax,–,–,"R10 (HepG2 cells): 0 [drug]/Cmax; effect of IFN coexposure on the drug/TNF cytotoxic interaction (HepG2 cells): coexposure to IFN enhanced the cytotoxic interaction; Emax (HepG2 cells; HepG2, read-out: D10): < 10%"
CC(C)C(=O)Nc1ccc([N+](=O)[O-])c(C(F)(F)F)c1 [Flutamide],0 [drug]/Cmax,0 [drug]/Cmax,0 [drug]/Cmax,0 [drug]/Cmax,0.4,< 10%,24.6%,0,0.36 µM,IDILI+,IDILI+,very small but statistically significant increases in LDH release,statistically significant increase in LDH release; also recorded: very small but statistically significant increases in LDH release,–,–,–,–,synergy with cytokines to kill HepG2 cells (HepG2 cells): did not synergize with cytokines to kill HepG2 cells
CC(C)Cc1ccc(C(C)C(=O)O)cc1 (stereo not drawn) [Ibuprofen],51.7 [drug]/Cmax,51.3 [drug]/Cmax,14.4 [drug]/Cmax,15.5 [drug]/Cmax,3.9,> 10%,101%,0,164 µM,–,–,TNF significantly enhanced the cytotoxicity,statistically significant increase in LDH release,14.1 [drug]/Cmax,14.6 [drug]/Cmax,50.9 [drug]/Cmax,50.7 [drug]/Cmax,–
C[C@H]1COc2c(N3CCN(C)CC3)c(F)cc3c(=O)c(C(=O)O)cn1c23 [Levofloxacin],0 [drug]/Cmax,0 [drug]/Cmax,0 [drug]/Cmax,0 [drug]/Cmax,0,< 10%,14%,0,15.7 µM,–,–,–,–,–,–,–,–,–
COc1c(N2C[C@@H]3CCCN[C@@H]3C2)c(F)cc2c(=O)c(C(=O)O)cn(C3CC3)c12 [Moxifloxacin],0 [drug]/Cmax,0 [drug]/Cmax,0 [drug]/Cmax,0 [drug]/Cmax,0,< 10%,9.7%,0,6.2 µM,–,–,–,–,–,–,–,–,–
CCc1ccc(CCOc2ccc(CC3SC(=O)NC3=O)cc2)nc1 (stereo not drawn) [Pioglitazone],80.1 [drug]/Cmax,84.6 [drug]/Cmax,84.5 [drug]/Cmax,87.3 [drug]/Cmax,0.8,–,44.1%,0,2.67 µM,IDILI−,IDILI−,–,caused cytotoxicity on its own,72.8 [drug]/Cmax,81.8 [drug]/Cmax,71.4 [drug]/Cmax,74.2 [drug]/Cmax,"synergy with cytokines to kill HepG2 cells (HepG2 cells): not enhanced by the addition of cytokines; D10 (LDH rise of at least 10 points, yes/no) (HepG2 cells; [7]): > 10%"
CC[C@H]1OC(=O)[C@H](C)C(=O)[C@H](C)[C@@H](O[C@@H]2O[C@H](C)C[C@H](N(C)C)[C@H]2O)[C@](C)(OC)C[C@@H](C)C(=O)[C@H](C)[C@H]2N(CCCCn3cnc(-c4cccnc4)c3)C(=O)O[C@]12C [Telithromycin],76.6 [drug]/Cmax,81.3 [drug]/Cmax,50.5 [drug]/Cmax,39.3 [drug]/Cmax,−17.1,–,117%,0,2.77 µM,IDILI+,IDILI+,TNF significantly enhanced the cytotoxicity,statistically significant increase in LDH release,47.7 [drug]/Cmax,39.0 [drug]/Cmax,77.0 [drug]/Cmax,80.7 [drug]/Cmax,"effect of IFN coexposure on the drug/TNF cytotoxic interaction (HepG2 cells): coexposure to IFN enhanced the cytotoxic interaction; D10 (LDH rise of at least 10 points, yes/no) (HepG2 cells; [7]): > 10%"
CCCC(CCC)C(=O)O [Valproic Acid],–,51.3 [drug]/Cmax,23.3 [drug]/Cmax,–,37.1,–,44.5%,0,175 µM,IDILI+,–,–,–,–,–,–,23.4 [drug]/Cmax,–
